Entries after “also recorded” stand apart in the source; their conditions may differ. Where two headings read alike, the source gives them in different places.
Experiments:
[1] = target: T1, Cytosol Progesterone Receptor of the Estrogen-primed Immature Rabbit Uterus (Oryctolagus cuniculus, UniProt P06186); experiment: Relative binding affinity for progesterone receptor (competition with 3H-progesterone); set-up: species or system rabbit (New Zealand White); conditions: for RBA: 16-18 hour incubation, progesterone = 100
T1 construct: cytosol progesterone receptor of the estrogen-primed immature rabbit uterus; tissue Dutchland Laboratories, Inc., Denver, Pa (animals); host or cells: uterus cytosol of estradiol-treated immature female New Zealand White rabbits
T1 sequence (P06186 1-930): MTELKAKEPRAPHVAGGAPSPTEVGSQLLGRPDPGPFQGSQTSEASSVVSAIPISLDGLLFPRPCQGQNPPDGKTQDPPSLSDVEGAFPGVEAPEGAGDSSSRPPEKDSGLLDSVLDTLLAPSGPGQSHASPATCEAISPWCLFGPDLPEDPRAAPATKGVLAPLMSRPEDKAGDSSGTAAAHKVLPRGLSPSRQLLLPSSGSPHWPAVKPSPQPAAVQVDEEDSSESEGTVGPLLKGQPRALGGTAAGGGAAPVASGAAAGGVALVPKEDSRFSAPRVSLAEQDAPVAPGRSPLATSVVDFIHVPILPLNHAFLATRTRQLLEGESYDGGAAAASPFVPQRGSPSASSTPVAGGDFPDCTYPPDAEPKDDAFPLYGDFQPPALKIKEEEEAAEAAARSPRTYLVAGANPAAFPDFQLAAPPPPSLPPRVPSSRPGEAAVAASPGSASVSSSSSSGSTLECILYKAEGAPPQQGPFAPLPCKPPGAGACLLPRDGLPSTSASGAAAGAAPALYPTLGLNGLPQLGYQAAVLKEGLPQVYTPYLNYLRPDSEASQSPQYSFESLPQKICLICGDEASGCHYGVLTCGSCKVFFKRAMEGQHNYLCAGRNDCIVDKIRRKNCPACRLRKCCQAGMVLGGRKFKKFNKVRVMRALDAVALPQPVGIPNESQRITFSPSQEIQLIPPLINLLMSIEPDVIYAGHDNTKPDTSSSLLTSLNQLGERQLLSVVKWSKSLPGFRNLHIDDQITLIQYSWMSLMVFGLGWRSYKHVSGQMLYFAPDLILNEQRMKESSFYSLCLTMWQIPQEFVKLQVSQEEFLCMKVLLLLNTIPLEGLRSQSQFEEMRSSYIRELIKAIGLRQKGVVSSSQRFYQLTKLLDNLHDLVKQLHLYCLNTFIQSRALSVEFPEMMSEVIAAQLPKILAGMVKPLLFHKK
Procedure: RBA values recorded at 0° C. after short incubation times (e.g., 2 hr) mainly reflect differences in the association rate constants of the competing ligands, whereas those measured after long incubation times (e.g., 16 to 24 hr) and/or higher temperatures predominantly are influenced by differences in the dissociation rate constants of the competing ligands. RBA's determined after short incubation times primarily reflect the association of the competitor compared to the natural hormone. Conversely, RBA's measured after long incubation times reflect the dissociation rate of the competitor compared to the natural hormone.
The assay components are combined, allowed to equilibrate, and unbound radioactivity removed by charcoal adsorption.
Animal species. Immature female New Zealand White rabbits weighing 0.8 to 1.0 kg (Dutchland Laboratories, Inc., Denver, Pa).
Pretreatment. Subcutaneous treatment with 15 μg 17β-estradiol/0.6 ml sesame oil each morning (0830 to 0930 hr) for three days. Animals sacrificed 24 hr after final injection.
Tissue. Uterus; each uterus weighed about 1.0 g and two or three uteri were pooled for each assay.
Buffer. (A) 0.01M TES, pH 7.4, 1 mM EDTA, 0.012M thioglycerol and 30% glycerol for cytosol preparation and ^3 H-steroid, unlabeled hormone and compound solutions. (B) 0.01M TES, pH 7.4, 1 mM EDTA and 0.012M thioglycerol for charcoal solution.
Homogenization. Five or six 5-second bursts with 30 second cooling periods between bursts using Brinkman Polytron Pt. 10 at 3.5 rheostat setting.
Temperature. 0°-4° C. for all steps.
Centrifugation. 45,000 rpm for 1 hr, 50 Ti rotor, Beckman L8-80 ultracentrifuge.
Incubation. 16-18 hr at 4°-6° C.
Concentations. 1×10^-10 M to 1×10^-5 M (7 concentrations).
Method. Charcoal adsorption method used to remove unbound radioactivity. Five-tenths ml of dextran-coated charcoal (0.5% Norit A and 0.05% dextran T-70) added to all tubes except total radioactivity tubes (0.5 ml buffer [B] added), tubes vortexed 3-5 sec, allowed to sit for 10 minutes and centrifuged 10 minutes at 2000 rpm in Beckman TJ-6 centrifuge at 0°-4° C.
Data Interpretation. […] The relative binding affinity (RBA) of each compound was calculated by using the following equation. [formula] where

[2] = system: uterine endometrium of estrone-primed immature rabbits; experiment: Clauberg assay (progestational activity, McPhail); format: in vivo, rabbit (New Zealand White); conditions: for progestational potency relative to subcutaneous progesterone, in words: compound given orally, progesterone sc; for McPhail Index (0-4) (X ± S.D.): 0 none, 4 maximal
[3] = system: androgen target organs of castrate immature male rats; experiment: Anti-androgenic activity in the castrate immature rat assay; format: in vivo
Procedure: The oral anti-androgenic activity of 6-methyl-6-dehydro-17α-ethynylprogesterone was evaluated in the castrate immature male rat assay [Lerner et al., Proc. Soc. […] The assay is briefly described in the footnotes to Table 11.
*This assay employs castrate immature rats. For methods refer to Lerner,
L. J., A. Bianchi and A. Borman, Proc. Soc.
**Groups of rats (7/group) were given daily injections of 0.3 ml sesame
oil (control) or compound (in 0.3 ml sesame oil) for 7 days. Some groups
also concurrently received progestational compounds by the sc or oral
route of administration in order to evaluate antiandrogenic activity. One
day after the final doses, the animals were sacrificed and the androgen
target organs indicated were weighed.
***Statistically significant (p < 0.05) lower organ weights versus the
testosterone, sc, (400 μg/rat/day) group as determined by Analysis of
Variance coupled with Duncan's Multiple Range Test.

[4] = system: estrogen-primed immature rabbits; conditions: cited from earlier work
[5] = system: endometrium of estrogen-primed ovariectomized or climacteric women; conditions: oral; cited from earlier work
[6] = oral 25 μg/rat daily + testosterone sc 400
[7] = oral 100 μg/rat daily + testosterone sc 400
[8] = oral 400 μg/rat daily + testosterone sc 400

| SMILES | progestational potency relative to subcutaneous progesterone, in words [2] | Uterine Weight (X ± S.D.) ([2]; oral, 5 μg/rabbit daily) | McPhail Index (0-4) (X ± S.D.) ([2]; oral, 5 μg/rabbit daily) | Uterine Weight (X ± S.D.) ([2]; oral, 10 μg/rabbit daily) | McPhail Index (0-4) (X ± S.D.) ([2]; oral, 10 μg/rabbit daily) | Uterine Weight (X ± S.D.) ([2]; oral, 25 μg/rabbit daily) | McPhail Index (0-4) (X ± S.D.) ([2]; oral, 25 μg/rabbit daily) | Uterine Weight (X ± S.D.) ([2]; oral, 50 μg/rabbit daily) | McPhail Index (0-4) (X ± S.D.) ([2]; oral, 50 μg/rabbit daily) | Uterine Weight (X ± S.D.) ([2]; oral, 100 μg/rabbit daily) | McPhail Index (0-4) (X ± S.D.) ([2]; oral, 100 μg/rabbit daily) | Uterine Weight (X ± S.D.) ([2]; oral, 200 μg/rabbit daily) | McPhail Index (0-4) (X ± S.D.) ([2]; oral, 200 μg/rabbit daily) | Uterine Weight (X ± S.D.) ([2]; oral, 400 μg/rabbit daily) | McPhail Index (0-4) (X ± S.D.) ([2]; oral, 400 μg/rabbit daily) | Threshold or effective dose, Clauberg Assay ([4]; oral) | Threshold or effective dose, Clauberg Assay ([4]; s.c. (i.m.)) | Threshold or effective dose, Kaufman Assay [5] | other results |
| --- | --- | --- | --- | --- | --- | --- | --- | --- | --- | --- | --- | --- | --- | --- | --- | --- | --- | --- | --- |
| C#C[C@]1(C(C)=O)CC[C@H]2[C@@H]3C=C(C)C4=CC(=O)CC[C@]4(C)[C@H]3CC[C@@]21C [17α-Ethynyl-6-methylpregna-4,6-diene-3,20-dione] | more than eight times as potent as progesterone administered subcutaneously | 0.99 ± 0.34 g | 0.00 ± 0.0 | 1.11 ± 0.23 g | 0.17 ± 0.12 | 2.93 ± 1.33 g | 3.33 ± 0.62 | 3.59 ± 0.43 g | 4.00 ± 0.00 |  |  |  |  |  |  |  |  |  | RBA ([1]; Assay 6): 104%; potency relative to levonorgestrel, in words ([2]; both given orally): equipotent with levonorgestrel; Levator Ani weight (X ± S.D.) [3, 6]: 63 ± 13 mg; Seminal Vesicles weight (X ± S.D.) [3, 6]: 141 ± 43 mg; Ventral Prostate weight (X ± S.D.) [3, 6]: 61 ± 13 mg; Levator Ani weight (X ± S.D.) [3, 7]: 68 ± 13 mg; Seminal Vesicles weight (X ± S.D.) [3, 7]: 141 ± 9 mg; Ventral Prostate weight (X ± S.D.) [3, 7]: 63 ± 25 mg; Levator Ani weight (X ± S.D.) [3, 8]: 66 ± 9 mg; Seminal Vesicles weight (X ± S.D.) [3, 8]: 129 ± 37 mg; Ventral Prostate weight (X ± S.D.) [3, 8]: 43 ± 12 mg; anti-androgenic activity, in words ([3]; with testosterone sc 400 μg/rat/day, doses up to 400 μg/rat/day (progestagen oral; progesterone sc), listed as 6-methyl-6-dehydro-17α-ethynylprogesterone): significant depression of ventral prostate weight; also recorded: Seminal vesicle weight also was depressed at the same dose level, but the decrease was not statistically significant |
| C#C[C@]1(C(C)=O)CC[C@H]2[C@@H]3CCC4=CC(=O)CC[C@@H]4[C@H]3CC[C@@]21C [17α-Ethynyl-19-norprogesterone, 17α-ethynyl-19-nor-4-pregnene-3,20-dione] | roughly comparable to subcutaneously administered progesterone |  |  |  |  |  |  | 1.41 ± 0.02 g | 0.38 ± 0.27 | 1.72 ± 0.36 g | 1.17 ± 1.10 | 1.70 ± 0.33 g | 0.83 ± 0.72 | 3.40 ± 1.14 g | 3.75 ± 0.10 |  |  |  | RBA ([1]; Assay 4): 100%; RBA ([1]; Assay 5): 133%; progesterone receptor binding, in words ([1]; compared with progesterone): slightly greater than that of progesterone itself; progestational potency relative to progesterone (sc) ([2]; compound given sc): about 100 times; Uterine Weight (X ± S.D.) ([2]; sc, 2.5 μg/rabbit daily): 2.64 ± 0.22 g; McPhail Index (0-4) (X ± S.D.) ([2]; sc, 2.5 μg/rabbit daily): 3.25 ± 0.41; Uterine Weight (X ± S.D.) ([2]; sc, 5 μg/rabbit daily): 3.55 ± 0.54 g; McPhail Index (0-4) (X ± S.D.) ([2]; sc, 5 μg/rabbit daily): 3.97 ± 0.05; Uterine Weight (X ± S.D.) ([2]; sc, 10 μg/rabbit daily): 4.57 ± 0.67 g; McPhail Index (0-4) (X ± S.D.) ([2]; sc, 10 μg/rabbit daily): 3.92 ± 0.12; Uterine Weight (X ± S.D.) ([2]; sc, 20 μg/rabbit daily): 4.94 ± 0.87 g; McPhail Index (0-4) (X ± S.D.) ([2]; sc, 20 μg/rabbit daily): 4.00 ± 0.00 |
| C#C[C@]1(O)CC[C@H]2[C@@H]3CCC4=CC(=O)CC[C@@H]4[C@H]3CC[C@@]21CC [Levonorgestrel, reference compound] |  | 1.30 ± 0.49 g | 0.08 ± 0.12 | 0.86 ± 0.04 g | 0.04 ± 0.06 | 2.59 ± 0.81 g | 3.71 ± 0.16 | 1.95 ± 0.41 g | 2.92 ± 0.42 | 3.57 ± 1.08 g | 3.90 ± 0.12 | 2.80 ± 0.14 g | 4.00 ± 0.00 | 2.67 ± 0.80 g | 3.70 ± 0.47 | 0.03 mg/animal | 0.01-0.03 mg/animal | 6 mg/cycle | RBA ([1]; Assay 1, 5α-dihydro-17α-ethynyl: lot 1): 111% |
| C#C[C@]1(O)CC[C@H]2[C@@H]3CCC4=CC(=O)CC[C@@H]4[C@H]3CC[C@@]21C [Norethisterone] |  |  |  |  |  |  |  |  |  |  |  |  |  |  |  |  | 0.1 mg/animal | 100-150 mg/cycle |  |
| C#C[C@]1(O)CC[C@H]2[C@@H]3CCC4=C(CCC(=O)C4)[C@H]3CC[C@@]21C [Norethynodrel] |  |  |  |  |  |  |  |  |  |  |  |  |  |  |  | 0.3 mg/animal | 0.3 mg/animal | 150-200 mg/cycle |  |
